According to patent US9650340B2, “5-fluoro-N-(pyridin-2-yl)pyridin-2-amine derivatives containing a sulfoximine group” (BAYER PHARMA AKTIENGESELLSCHAFT, priority 2012, dated 2017):
pIC50: −log10 of the molar value. Read-outs that look alike come from different tables or passages of the source.

Assays:
[1] = target: T1, CDK9/CycT1 (Homo sapiens, UniProt P50750); assay: CDK9/CycT1 high ATP kinase assay (TR-FRET, 2 mM ATP); type: biochemical; settings: Method 1b
T1 construct: Recombinant full-length His-tagged human CDK9 and CycT1; His; purchased Invitrogen PV4131; host or cells: insect cells
Method: 1b. CDK9/CyeT1 High ATP Kinase Assay
CDK9/CycT1-inhibitory activity of compounds of the present invention at a high ATP concentration after preincubation of enzyme and test compounds was quantified employing the CDK9/CycT1 TR-FRET assay as described in the following paragraphs.
Recombinant full-length His-tagged human CDK9 and CycT1, expressed in insect cells and purified by Ni-NTA affinity chromatography, were purchase from Invitrogen (Cat. No PV4131). As substrate for the kinase reaction biotinylated peptide biotin-Ttds-[…] (C-terminus in amid form) was used which can be purchased e.g. form the company JERINI peptide technologies (Berlin, Germany). For the assay 50 nl of a 100 fold concentrated solution of the test compound in DMSO was pipetted into a black low volume 384 well microtiter plate (Greiner Bio-One, Frickenhausen, Germany), 2 μl of a solution of CDK9/CycT1 in aqueous assay buffer [50 mM Tris/HCl pH 8.0, 10 mM MgCl2, 1.0 mM dithiothreitol, 0.1 mM sodium ortho-vanadate, 0.01% (v/v) Nonidet-P40 (Sigma)] were added and the mixture was incubated for 15 min at 22° C. to allow pre-binding of the test compounds to the enzyme before the start of the kinase reaction. Then the kinase reaction was started by the addition of 3 μl of a solution of adenosine-tri-phosphate (ATP, 3.3 mM=>final conc. in the 5 μl assay volume is 2 mM) and substrate (1.67 μM=>final conc. in the 5 μl assay volume is 1 μM) in assay buffer and the resulting mixture was incubated for a reaction time of 25 min at 22° C.
The resulting mixture was incubated 1 h at 22° C. to allow the formation of complex between the phosphorylated biotinylated peptide and the detection reagents. Subsequently the amount of phosphorylated substrate was evaluated by measurement of the resonance energy transfer from the Eu-chelate to the streptavidine-XL. Therefore, the fluorescence emissions at 620 nm and 665 nm after excitation at 350 nm was measured in a HTRF reader, e.g. a Rubystar (BMG Labtechnologies, Offenburg, Germany) or a Viewlux (Perkin-Elmer). The ratio of the emissions at 665 nm and at 622 nm was taken as the measure for the amount of phosphorylated substrate.

[2] = system: HeLa, human cervical tumour cells; assay: Proliferation assay, HeLa (crystal violet); type: cell-based; settings: 4 days, read-out: Inhibition of HeLa cell proliferation IC50
Method: (§1) Cultivated tumour cells (HeLa, human cervical tumour cells, ATCC CCL-2; NCI-H460, human non-small cell lung carcinoma cells, ATCC HTB-177; A2780, human ovarian carcinoma cells, ECACC #93112519; DU 145, hormone-independent human prostate carcinoma cells, ATCC HTB-81; HeLa-MaTu-ADR, multidrug-resistant human cervical carcinoma cells, EPO-GmbH Berlin; Caco-2, human colorectal carcinoma cells, ATCC HTB-37; B16F10, mouse melanoma cells, ATCC CRL-6475) were plated at a density of 5,000 cells/well (DU145, HeLa-MaTu-ADR), 3,000 cells/well (NCI-H460, HeLa), 2,500 cells/well (A2780), 1,500 cells/well (Caco-2), or 1,000 cells/well (B16F10) in a 96-well multititer plate in 200 μL of their respective growth medium supplemented 10% fetal calf serum. After 24 hours, the cells of one plate (zero-point plate) were stained with crystal violet (see below), while the medium of the other plates was replaced by fresh culture medium (200 μl), to which the test substances were added in various concentrations (0 μM, as well as in the range of 0.001-10 μM; the final concentration of the solvent dimethyl sulfoxide was 0.5%). The cells were incubated for 4 days in the presence of test substances. Cell proliferation was determined by staining the cells with crystal violet: the cells were fixed by adding 20 μl/measuring point of an 11% glutaric aldehyde solution for 15 minutes at room temperature. After three washing cycles of the fixed cells with water, the plates were dried at room temperature. The cells were stained by adding 100 μl/measuring point of a 0.1% crystal violet solution (pH 3.0). After three washing cycles of the stained cells with water, the plates were dried at room temperature. The dye was dissolved by adding 100 μl/measuring point of a 10% acetic acid solution. The extinction was determined by photometry at a wavelength of 595 nm. The change of cell number, in percent, was calculated by normalization of the measured values to the extinction values of the zero-point plate (=0%) and the extinction of the untreated (0 μm) cells (=100%). The IC50 values (inhibitory concentration at 50% of maximal effect) were determined by means of a 4 parameter fit. Non-adherent MOLM-13 human acute myeloid leukemia cells (DSMZ ACC 554) were seeded at a density of 5,000 cells/well in a 96-well multititer plate in 100 μL of growth medium supplemented 10% fetal calf serum. After 24 hours, cell viability of one plate (zero-point plate) was determined with the Cell Titre-Glo Luminescent Cell Viability Assay (Promega), while 50 μL of test compound containing medium was added to the wells of the other plates (final concentrations in the range of 0.001-10 μM and DMSO controls; the final concentration of the solvent dimethyl sulfoxide was 0.5%). Cell viability was assessed after 72-hour exposure with the Cell Titre-Glo Luminescent Cell Viability Assay (Promega).

[3] = system: HeLa-MaTu-ADR, multidrug-resistant human cervical carcinoma cells; assay: Proliferation assay, HeLa-MaTu-ADR (crystal violet); type: cell-based; settings: 4 days, read-out: Inhibition of HeLa-MaTu-ADR cell proliferation IC50
Method: as §1

[4] = system: NCI-H460, human non-small cell lung carcinoma cells; assay: Proliferation assay, NCI-H460 (crystal violet); type: cell-based; settings: NCI-H460, 4 days, read-out: Inhibition of NCI-H460 cell proliferation IC50
Method: as §1

[5] = system: DU 145, hormone-independent human prostate carcinoma cells; assay: Proliferation assay, DU145 (crystal violet); type: cell-based; settings: DU145, 4 days, read-out: Inhibition of DU145 cell proliferation IC50
Method: as §1

[6] = system: Caco-2, human colorectal carcinoma cells; assay: Proliferation assay, Caco-2 (crystal violet); type: cell-based; settings: Caco-2, 4 days, read-out: Inhibition of Caco-2 cell proliferation IC50
Method: as §1

[7] = system: B16F10, mouse melanoma cells; assay: Proliferation assay, B16F10 (crystal violet); type: cell-based; settings: B16F10, 4 days, read-out: Inhibition of B16F10 cell proliferation IC50
Method: as §1

T1 sequence (P50750 whole entry): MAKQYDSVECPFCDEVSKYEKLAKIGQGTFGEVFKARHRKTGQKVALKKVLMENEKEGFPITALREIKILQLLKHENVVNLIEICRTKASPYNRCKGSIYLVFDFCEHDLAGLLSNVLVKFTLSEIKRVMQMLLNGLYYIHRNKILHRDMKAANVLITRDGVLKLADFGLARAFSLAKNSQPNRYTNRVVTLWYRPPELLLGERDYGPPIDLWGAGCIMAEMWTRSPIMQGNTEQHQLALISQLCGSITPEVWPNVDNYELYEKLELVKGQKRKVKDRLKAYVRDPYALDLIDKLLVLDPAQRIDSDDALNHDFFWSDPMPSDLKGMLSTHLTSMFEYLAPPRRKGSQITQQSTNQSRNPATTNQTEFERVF
T1 sequence (O60563 whole entry partner): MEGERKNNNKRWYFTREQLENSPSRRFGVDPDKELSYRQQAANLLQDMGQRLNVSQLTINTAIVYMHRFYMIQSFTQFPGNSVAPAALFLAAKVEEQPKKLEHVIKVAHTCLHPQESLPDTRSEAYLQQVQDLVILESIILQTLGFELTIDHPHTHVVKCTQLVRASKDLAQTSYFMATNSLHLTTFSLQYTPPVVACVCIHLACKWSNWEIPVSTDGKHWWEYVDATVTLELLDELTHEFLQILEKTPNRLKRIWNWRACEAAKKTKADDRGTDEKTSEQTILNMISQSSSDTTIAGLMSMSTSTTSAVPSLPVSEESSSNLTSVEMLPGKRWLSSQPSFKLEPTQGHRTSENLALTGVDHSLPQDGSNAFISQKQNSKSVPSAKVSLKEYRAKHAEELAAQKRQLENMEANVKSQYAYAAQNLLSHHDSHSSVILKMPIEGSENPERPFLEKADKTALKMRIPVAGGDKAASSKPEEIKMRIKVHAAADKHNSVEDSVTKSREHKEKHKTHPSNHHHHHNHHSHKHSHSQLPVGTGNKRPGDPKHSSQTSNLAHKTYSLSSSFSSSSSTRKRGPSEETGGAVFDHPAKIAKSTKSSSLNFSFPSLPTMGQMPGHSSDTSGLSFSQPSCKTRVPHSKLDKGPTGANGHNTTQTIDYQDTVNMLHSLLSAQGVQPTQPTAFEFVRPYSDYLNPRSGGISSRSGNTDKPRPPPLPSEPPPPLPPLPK

Row | SMILES | pIC50 [1] | pIC50 ([2]; Homo sapiens, 96 h) | pIC50 ([3]; Homo sapiens, 96 h) | pIC50 ([4]; Homo sapiens, NCI-H460, 96 h) | pIC50 ([5]; Homo sapiens, DU-145, 96 h) | pIC50 ([6]; Homo sapiens, Caco-2, 96 h) | pIC50 ([7]; Mus musculus, B16-F10, 96 h) | pIC50 [4] | pIC50 [3] | pIC50 [5] | pIC50 [7] | pIC50 [2] | pIC50 [6]
1 | COc1cc(F)ccc1-c1cc(Nc2cc(CS(C)(=O)=NC(=O)C(F)(F)F)cc(C(F)(F)F)n2)ncc1F (single isomer, unassigned; (+)) [Example 24, (+)-2,2,2-Trifluoro-N-[{[2-{[5-fluoro-4-(4-fluoro-2-methoxyphenyl)pyridin-2-yl]amino}-6-(trifluoromethyl)-pyridin-4-yl]methyl}(methyl)oxido-λ^6-sulfanylidene]acetamide] | 7.57 | 7.49 | 7.52 | 7.48 | 7.48 | 7.39 | 7.37 |  |  |  |  |  | 
2 | CCOc1cc(F)ccc1-c1cc(Nc2cc(CS(C)(=N)=O)cc(F)n2)ncc1F (single isomer, unassigned; (+)) [Example 28, (+)-4-(2-Ethoxy-4-fluorophenyl)-5-fluoro-N-{6-fluoro-4-[(S-methylsulfonimidoyl)methyl]pyridin-2-yl}pyridin-2-amine] | 8.40 | 7.00 | 6.92 | 6.72 | 6.92 | 6.92 | 6.82 |  |  |  |  |  | 
3 | COc1cc(F)ccc1-c1cc(Nc2cc(CS(C)(=O)=NC(=O)C(F)(F)F)cc(C(F)(F)F)n2)ncc1F (single isomer, unassigned; (-)) [Example 25, (−)-2,2,2-Trifluoro-N-[{[2-{[5-fluoro-4-(4-fluoro-2-methoxyphenyl)pyridin-2-yl]amino}-6-(trifluoromethyl)-pyridin-4-yl]methyl}(methyl)oxido-λ^6-sulfanylidene]acetamide] | 7.89 |  |  |  |  |  |  | 7.44 | 7.52 | 7.43 | 7.30 | 7.46 | 7.35
4 | CCOc1cc(F)ccc1-c1cc(Nc2cc(CS(C)(=N)=O)cc(F)n2)ncc1F (single isomer, unassigned; (-)) [Example 29, (−)-4-(2-Ethoxy-4-fluorophenyl)-5-fluoro-N-{6-fluoro-4-[(S-methylsulfonimidoyl)methyl]pyridin-2-yl}pyridin-2-amine] | 8.40 |  |  |  |  |  |  | 6.82 | 7.09 | 6.96 | 6.96 | 6.96 | 7.00

Molecules with a higher pIC50 [1], results first:

Row | pIC50 [1] | pIC50 ([2]; Homo sapiens, 96 h) | pIC50 ([3]; Homo sapiens, 96 h) | pIC50 ([4]; Homo sapiens, NCI-H460, 96 h) | pIC50 ([5]; Homo sapiens, DU-145, 96 h) | pIC50 ([6]; Homo sapiens, Caco-2, 96 h) | pIC50 ([7]; Mus musculus, B16-F10, 96 h) | pIC50 [4] | pIC50 [3] | pIC50 [5] | pIC50 [7] | pIC50 [2] | pIC50 [6] | SMILES
5 | 8.70 | 7.51 | 7.28 |  | 7.42 | 7.40 | 7.01 | 7.00 |  |  |  |  |  | COc1cc(F)ccc1-c1cc(Nc2cc(CS(C)(=N)=O)cc(C)n2)ncc1F (single isomer, unassigned; (+)) [Example 32, (+)-5-Fluoro-4-(4-fluoro-2-methoxyphenyl)-N-{6-methyl-4-[(S-methylsulfonimidoyl)methyl]pyridin-2-yl}pyridin-2-amine]
6 | 8.70 |  |  |  |  |  |  | 7.46 | 7.52 | 7.47 | 7.33 | 7.52 | 7.47 | COc1cc(F)ccc1-c1cc(Nc2cc(CS(C)(=N)=O)cc(C(F)(F)F)n2)ncc1F (single isomer, unassigned; (-)) [Example 23, (−)-5-Fluoro-4-(4-fluoro-2-methoxyphenyl)-N-{4-[(S-methylsulfonimidoyl)methyl]-6-(trifluoromethyl)pyridin-2-yl}pyridin-2-amine]
7 | 9.00 | 7.51 | 7.49 | 7.41 | 7.47 | 7.42 | 7.20 |  |  |  |  |  |  | COc1cc(F)ccc1-c1cc(Nc2cc(CS(C)(=O)=NC#N)ccn2)ncc1F (single isomer, unassigned) [Example 10, {[(2-{[5-Fluoro-4-(4-fluoro-2-methoxyphenyl)pyridin-2-yl]amino}pyridin-4-yl)methyl](methyl)oxido-λ^6-sulfanylidene}cyanamide]
8 | 9.00 | 7.52 | 7.52 | 7.47 | 7.49 | 7.42 | 7.29 |  |  |  |  |  |  | COc1cc(F)ccc1-c1cc(Nc2cc(CS(C)(=N)=O)cc(C(F)(F)F)n2)ncc1F (single isomer, unassigned; (+)) [Example 22, (+)-5-Fluoro-4-(4-fluoro-2-methoxyphenyl)-N-{4-[(S-methylsulfonimidoyl)methyl]-6-(trifluoromethyl)pyridin-2-yl}pyridin-2-amine]
9 | 9.00 | 7.52 |  |  |  | 7.35 |  | 7.00 | 7.42 | 7.24 | 7.27 |  |  | COc1cc(F)ccc1-c1cc(Nc2cc(CS(C)(=N)=O)cc(F)n2)ncc1F (single isomer, unassigned; (-)) [Example 20, (−)-5-Fluoro-4-(4-fluoro-2-methoxyphenyl)-N-{6-fluoro-4-[(S-methylsulfonimidoyl)methyl]pyridin-2-yl}pyridin-2-amine]
10 | 9.00 |  |  |  |  |  |  | 7.52 | 7.57 | 7.51 | 7.27 | 7.72 | 7.52 | COc1cc(F)ccc1-c1cc(Nc2cc(CS(C)(=N)=O)cc(C)n2)ncc1F (single isomer, unassigned; (-)) [Example 33, (−)-5-Fluoro-4-(4-fluoro-2-methoxyphenyl)-N-{6-methyl-4-[(S-methylsulfonimidoyl)methyl]pyridin-2-yl}pyridin-2-amine]
